The source of these data is ChEMBL document CHEMBL1152450 (J Med Chem, 2009).

SMILES strings stand for the structures.

Test system in one experiment: not listed separately
Description: Inhibition of SARS coronavirus PLpro residues 1541-1855 expressed in Escherichia coli. On the set-up: species or system Severe acute respiratory syndrome-related coronavirus.
Conditions: not given; call rule not given here
For `C[C@@H](NC(=O)c1ccc(NC(=O)OC(C)(C)C)cc1)c1ccc2ccccc2c1`, the IC50 result is “Not Active”. Turning to `C[C@@H](NC(=O)c1ccccc1O)c1ccc2ccccc2c1`, the IC50 entry is recorded as “Not Active”. Turning to `Cc1ccccc1C(=O)NC(c1ccccc1)c1ccc2ccccc2c1` (racemic), the IC50 entry was “Not Active”. Same read-out and setting: to `CCC(NC(=O)c1ccccc1C)c1ccc2ccccc2c1` (racemic) belongs “Not Active”.

A further experiment relates to SARS-CoV. Description: Antiviral activity against SARS coronavirus in african green monkey Vero E6 cells assessed as inhibition of replication after 48 hrs. Format: functional, organism-based, Severe acute respiratory syndrome-related coronavirus. Conditions: Severe acute respiratory syndrome-related coronavirus, Vero, 48 h; read-out: EC50.
As a reminder, the EC50 is the concentration giving half of the maximal effect. Consider `Cc1ccc(CN)cc1C(=O)N[C@H](C)c1cccc2ccccc12`, for which the concentration for a half-maximal effect (EC50) amounted to 6 µM. Take `CNCc1ccc(C)c(C(=O)N[C@H](C)c2cccc3ccccc23)c1`: the EC50 came out at 5.2 µM.

The same experiment, now with this note: vero.
For `Cc1ccccc1C(=O)N[C@H](C)c1ccc2ccccc2c1`, the EC50 result is on record as “Not Active”. Still for that read-out and setting: to `Cc1ccc(N)cc1C(=O)NC(C)(C)c1cccc2ccccc12` belongs “Not Active”; to `Cc1ccc(CNC(=O)OC(C)(C)C)cc1C(=O)N[C@H](C)c1cccc2ccccc12`, “Not Active”. Consider `Cc1cccc(C(=O)N[C@H](C)c2ccc3ccccc3c2)c1`, for which the concentration for a half-maximal effect (EC50) entry is on record as “Not Active”. The same measure, in the same setting: to `Cc1ccccc1C(=O)NC(C)c1ccc2ccccc2c1` (racemic) belongs “Not Active”.
